Reference: US20240173432A1, “Compositions and Methods for Treatment of Myotonic Dystrophy Type 1 with CRISPR/SluCas9” (Vertex Pharmaceuticals Incorporated, priority 2021, published 2024)

Columns and labels:
[1] = tested on: CTG repeat in the 3′ UTR of human DMPK gene; assay: Dual-cut screening: CTG repeat excision efficiency by loss-of-signal ddPCR; assay type: cell-based; conditions: sgRNA pair, primary DM1 patient myoblasts; for Excision efficiency (by ddPCR): 3 μM DNA-PKi Compound 6 for 48 hours; for Excision efficiency by ddPCR (Vehicle): vehicle (DMSO)
Method: RNPs were assembled with recombinant SluCas9 protein and chemically modified sgRNAs at a ratio of 1:3 (protein:sgRNA). For SINGLE-cut screening, RNP complexes were assembled with 30 pmol of SluCas9 and 90 pmol of sgRNA in P5 Primary Cell Nucleofector Solution (Lonza). After incubation at room temperature for 20 minutes, 10 μL of RNP complex were mixed with two hundred thousand of primary myoblasts resuspended in 10 μL of P5 Nucleofector Solution. For DOUBLE-cut screening, RNP complexes were first assembled for individual sgRNAs with 20 pmol of SluCas9 protein and 60 pmol of sgRNAs in 5 μL of P5 Nucleofector Solution. After incubation at room temperature for 20 minutes, the two RNP complexes (one for upstream sgRNA and one for downstream sgRNA) were mixed at 1:1 ratio and then further mixed with two hundred thousand of primary myoblasts resuspended in 10 μL of P5 Nucleofector Solution.
The Nucleofector 96-well Shuttle System (Lonza) was used to deliver the SluCa9/sgRNA RNPs into primary DM1 patient myoblasts using the nucleofection program CM138. Following nucleofection, myoblasts from each well of nucleofection shuttle were split into six wells of the 96-well cell culture plate (Greiner, 655090) coated with matrigel. The first three wells were treated with DMSO for 48 hrs before changing to fresh myoblast growth medium, and the other three wells were treated with 3 μM of DNA-PKi Compound 6 for 48 hrs before changing to fresh myoblast growth medium. 72 hrs post nucleofection, two wells of DMSO-treated myoblasts and two wells of DNA-PKi-treated myoblasts from each nucleofection were harvested for genomic DNA extraction using the Kingfisher Flex purification system (Thermal Fisher), whereas one well of DMSO-treated myoblasts and one well of DNA-PKi-treated myoblasts were stained for RNA foci by FISH staining.
The primers and probes of ddPCR are designed using the online primer design software Primer3Plus (http://www.bioinformatics.nl/cgi-bin/primer3plus/primer3plus.cgi). In some embodiments, two target primers/probe sets were used to detect CTG repeat excision, and a reference primers/probe set were used to amplify a region located in Exon 1 of human DMPK gene and to serve as a reference control for the target sets. The 24 μL of ddPCR reaction consists of 12 μL of Supermix for Probes (no dUTP) (Bio-Rad Laboratories), 1 μL of Reference primers mix (21.6 μM), 1 μL of Reference probe (6 μM), 1 μL of Target primers mix (21.6 μM), 1 μL of Target probe (6 μM), and 8 μL of sample genomic DNA. Droplets were generated using probe oil with the QX200 Droplet Generator (Bio-Rad Laboratories). Droplets were transferred to a 96-well PCR plate, sealed and cycled in a C1000 deep well Thermocycler (Bio-Rad Laboratories) under the following cycling protocol: 1 cycle at 95° C. for 10 min; 40 cycles of 94° C. for 30 see, and 58° C. for 1 min; 1 cycle at 98° C. for 10 min (for enzyme inactivation). The cycled plate was then transferred and read in the FAM and HEX channels using the Bio-Rad QX200 Droplet Reader (Bio-Rad Laboratories). ddPCR analysis is performed with the Bio-Rad QuantaSoft Pro Software.
To assess the efficiency of SluCas9 sgRNA pairs for inducing CTG repeat excision, Dual-cut screening was performed in which individual SluCas9 sgRNAs and recombinant SluCas9 protein were assembled into ribonucleoprotein (RNP) and delivered into primary DM1 patient myoblasts. Nucleofected myoblasts were treated with either DMSO (vehicle) or 3 μM of DNA-dependent Protein Kinase Inhibitor (DNA-PKi) Compound 6 for 48 hours. 72 hours post-nucleofection, myoblasts were subjected to either genomic DNA isolation or RNA foci staining by fluorescence in situ hybridization (FISH).
CRISPR repeat excision efficiency was assessed for each of the 88 pairs (FIG. 8A-B and Table 5). CTG repeat excision efficiency percentages are shown for vehicle (DMSO; white bars) and with DNA-PKi (black bars) (FIG. 8B and Table 5).

[2] = tested on: CUG foci in primary DM1 patient myoblasts; assay: Dual-cut screening: FISH staining of CUG RNA foci; assay type: cell-based, human; conditions: sgRNA pair, primary DM1 patient myoblasts; for % of CUG foci free nuclei (DNA-PKi): 3 μM DNA-PKi Compound 6 for 48 hours; for % of CUG foci free nuclei (Vehicle): vehicle (DMSO)
Outline: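 SluCas9 RNPs (protein:sgRNA 1:3; 20 pmol SluCas9 + 60 pmol sgRNA per guide, paired 1:1) nucleofected into primary DM1 patient myoblasts, then DMSO or 3 μM DNA-PKi Compound 6 for 48 h. At 72 h post-nucleofection cells fixed, FISH-stained with Cy3-PNA(CAG)5 probe plus anti-MBNL1 and Hoechst; % CUG foci-free nuclei by high-content confocal imaging.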

## SluU21 + SluD18 (guide 1 GCTCGGAGCGGTTGTGAACTGG; guide 2 TGGAGGATGGAACACGGACGGC; guide RNA; listed as DNA, chemistry not fully specified)
[1]
  Excision efficiency (by ddPCR): 65.52
  Excision efficiency by ddPCR (Vehicle): 45.61
[2]
  % of CUG foci free nuclei (DNA-PKi): 89.21%
  % of CUG foci free nuclei (Vehicle): 54.26%

## SluU21 + SluD32 (guide 1 GCTCGGAGCGGTTGTGAACTGG; guide 2 CTTGTGCATGACGCCCTGCTCT; guide RNA; listed as DNA, chemistry not fully specified)
[1]
  Excision efficiency (by ddPCR): 70.09
  Excision efficiency by ddPCR (Vehicle): 41.94
[2]
  % of CUG foci free nuclei (DNA-PKi): 88.76%
  % of CUG foci free nuclei (Vehicle): 52.71%

## SluU21 + SluD34 (guide 1 GCTCGGAGCGGTTGTGAACTGG; guide 2 CGCGCCAGACGCTCCCCAGAGC; guide RNA; listed as DNA, chemistry not fully specified)
[1]
  Excision efficiency (by ddPCR): 61.75
  Excision efficiency by ddPCR (Vehicle): 42.16
[2]
  % of CUG foci free nuclei (DNA-PKi): 88.43%
  % of CUG foci free nuclei (Vehicle): 56.01%

## SluU21 + SluD48 (guide 1 GCTCGGAGCGGTTGTGAACTGG; guide 2 GAGAGCAGCGCAAGTGAGGAGG; guide RNA; listed as DNA, chemistry not fully specified)
[1]
  Excision efficiency (by ddPCR): 59.19
  Excision efficiency by ddPCR (Vehicle): 36.66
[2]
  % of CUG foci free nuclei (DNA-PKi): 86.36%
  % of CUG foci free nuclei (Vehicle): 51.76%

## SluU21 + SluD56 (guide 1 GCTCGGAGCGGTTGTGAACTGG; guide 2 CCAGCCGGCTCCGCCCGCTTCG; guide RNA; listed as DNA, chemistry not fully specified)
[1]
  Excision efficiency (by ddPCR): 59.97
  Excision efficiency by ddPCR (Vehicle): 25.94
[2]
  % of CUG foci free nuclei (DNA-PKi): 85.39%
  % of CUG foci free nuclei (Vehicle): 31.9%

## SluU21 + SluD68 (guide 1 GCTCGGAGCGGTTGTGAACTGG; guide 2 CCTGTAGCCTGTCAGCGAGTCG; guide RNA; listed as DNA, chemistry not fully specified)
[1]
  Excision efficiency (by ddPCR): 58.7
  Excision efficiency by ddPCR (Vehicle): 35.67
[2]
  % of CUG foci free nuclei (DNA-PKi): 87.57%
  % of CUG foci free nuclei (Vehicle): 51.5%

## SluU21 + SluD73 (guide 1 GCTCGGAGCGGTTGTGAACTGG; guide 2 CCAAAACGTGGATTGGGGTTGT; guide RNA; listed as DNA, chemistry not fully specified)
[1]
  Excision efficiency (by ddPCR): 61.57
  Excision efficiency by ddPCR (Vehicle): 36.17
[2]
  % of CUG foci free nuclei (DNA-PKi): 88.18%
  % of CUG foci free nuclei (Vehicle): 51.12%

## SluU21 + SluD83 (guide 1 GCTCGGAGCGGTTGTGAACTGG; guide 2 GTGGGGACAGACAATAAATACC; guide RNA; listed as DNA, chemistry not fully specified)
[1]
  Excision efficiency (by ddPCR): 63.44
  Excision efficiency by ddPCR (Vehicle): 37.42
[2]
  % of CUG foci free nuclei (DNA-PKi): 89.23%
  % of CUG foci free nuclei (Vehicle): 51.65%

## SluU21 + SluD100 (guide 1 GCTCGGAGCGGTTGTGAACTGG; guide 2 GTCCAGAGCTTTGGGCAGATGG; guide RNA; listed as DNA, chemistry not fully specified)
[1]
  Excision efficiency (by ddPCR): 63.99
  Excision efficiency by ddPCR (Vehicle): 36.68
[2]
  % of CUG foci free nuclei (DNA-PKi): 87.7%
  % of CUG foci free nuclei (Vehicle): 48.33%

## SluU59 + SluD32 (guide 1 CGCGGCCGGCGAACGGGGCTCG; guide 2 CTTGTGCATGACGCCCTGCTCT; guide RNA; listed as DNA, chemistry not fully specified)
[1]
  Excision efficiency (by ddPCR): 83.32
  Excision efficiency by ddPCR (Vehicle): 57.23
[2]
  % of CUG foci free nuclei (DNA-PKi): 91.19%
  % of CUG foci free nuclei (Vehicle): 69.23%

## SluU59 + SluD34 (guide 1 CGCGGCCGGCGAACGGGGCTCG; guide 2 CGCGCCAGACGCTCCCCAGAGC; guide RNA; listed as DNA, chemistry not fully specified)
[1]
  Excision efficiency (by ddPCR): 71.96
  Excision efficiency by ddPCR (Vehicle): 55.22
[2]
  % of CUG foci free nuclei (DNA-PKi): 89.01%
  % of CUG foci free nuclei (Vehicle): 76.47%

## SluU59 + SluD48 (guide 1 CGCGGCCGGCGAACGGGGCTCG; guide 2 GAGAGCAGCGCAAGTGAGGAGG; guide RNA; listed as DNA, chemistry not fully specified)
[1]
  Excision efficiency (by ddPCR): 65.89
  Excision efficiency by ddPCR (Vehicle): 47.17
[2]
  % of CUG foci free nuclei (DNA-PKi): 87.28%
  % of CUG foci free nuclei (Vehicle): 62.15%

## SluU59 + SluD56 (guide 1 CGCGGCCGGCGAACGGGGCTCG; guide 2 CCAGCCGGCTCCGCCCGCTTCG; guide RNA; listed as DNA, chemistry not fully specified)
[1]
  Excision efficiency (by ddPCR): 55.14
  Excision efficiency by ddPCR (Vehicle): 35.6
[2]
  % of CUG foci free nuclei (DNA-PKi): 84.48%
  % of CUG foci free nuclei (Vehicle): 46.4%

## SluU59 + SluD68 (guide 1 CGCGGCCGGCGAACGGGGCTCG; guide 2 CCTGTAGCCTGTCAGCGAGTCG; guide RNA; listed as DNA, chemistry not fully specified)
[1]
  Excision efficiency (by ddPCR): 65.42
  Excision efficiency by ddPCR (Vehicle): 58.24
[2]
  % of CUG foci free nuclei (DNA-PKi): 89.37%
  % of CUG foci free nuclei (Vehicle): 62.8125%

## SluU59 + SluD73 (guide 1 CGCGGCCGGCGAACGGGGCTCG; guide 2 CCAAAACGTGGATTGGGGTTGT; guide RNA; listed as DNA, chemistry not fully specified)
[1]
  Excision efficiency (by ddPCR): 64.95
  Excision efficiency by ddPCR (Vehicle): 42.14
[2]
  % of CUG foci free nuclei (DNA-PKi): 87.85%
  % of CUG foci free nuclei (Vehicle): 59.22%

## SluU59 + SluD83 (guide 1 CGCGGCCGGCGAACGGGGCTCG; guide 2 GTGGGGACAGACAATAAATACC; guide RNA; listed as DNA, chemistry not fully specified)
[1]
  Excision efficiency (by ddPCR): 64.95
  Excision efficiency by ddPCR (Vehicle): 49.18
[2]
  % of CUG foci free nuclei (DNA-PKi): 90.49%
  % of CUG foci free nuclei (Vehicle): 64.61%

## SluU59 + SluD100 (guide 1 CGCGGCCGGCGAACGGGGCTCG; guide 2 GTCCAGAGCTTTGGGCAGATGG; guide RNA; listed as DNA, chemistry not fully specified)
[1]
  Excision efficiency (by ddPCR): 68.69
  Excision efficiency by ddPCR (Vehicle): 37.61
[2]
  % of CUG foci free nuclei (DNA-PKi): 90.09%
  % of CUG foci free nuclei (Vehicle): 62.45%

## SluU62 + SluD32 (guide 1 AGGACCCTTCGAGCCCCGTTCG; guide 2 CTTGTGCATGACGCCCTGCTCT; guide RNA; listed as DNA, chemistry not fully specified)
[1]
  Excision efficiency (by ddPCR): 79.91
  Excision efficiency by ddPCR (Vehicle): 50.19
[2]
  % of CUG foci free nuclei (DNA-PKi): 88.75%
  % of CUG foci free nuclei (Vehicle): 55.63%

## SluU62 + SluD34 (guide 1 AGGACCCTTCGAGCCCCGTTCG; guide 2 CGCGCCAGACGCTCCCCAGAGC; guide RNA; listed as DNA, chemistry not fully specified)
[1]
  Excision efficiency (by ddPCR): 64.95
  Excision efficiency by ddPCR (Vehicle): 48.18
[2]
  % of CUG foci free nuclei (DNA-PKi): 88.29%
  % of CUG foci free nuclei (Vehicle): 64.71%
